Values after ≈ are worked out from the molar mass of the structure shown.
Experiments:
[1] = system: HEK293T; assay: Inhibition of LPS-stimulated human TLR4/MD2 expressed in HEK293T cells assessed as reduction in NF-kappaB activation preincubated for 1 hr followed by LPS stimulation for 8 hrs by luciferase reporter gene assay; format: cell-based; settings: time 9.0 hrs
[2] = target: T1, Toll-like receptor 4 (Homo sapiens, UniProt O00206); assay: Inhibition of TLR4 in HEK293 cells assessed as reduction in LPS-stimulated NF-kappaB activation at 10 uM incubated for 16 to 24 hrs by SEAP reporter gene assay relative to control; format: cell-based; settings: time 16-24 hrs
[3] = Cytotoxicity against HEK293 cells assessed as cell survival at 10 uM incubated for 16 to 24 hrs by MTT method; format: toxicity, cell-based; settings: human, time 16-24 hrs, read-out: Activity
[4] = target: T1, Toll-like receptor 4; assay: Binding affinity to TLR4 in human THP-1 monocytes after 48 hrs by ELISA; format: cell-based
[5] = Inhibition of LPS-stimulated NO production in mouse RAW264.7 cells at 10 nM incubated for overnight by 2,3-diaminonaphthalene assay relative to control; format: functional
[6] = Inhibition of LPS-induced NO production in mouse BV-2 microglia cells incubated for 24 hrs by 2,3-diaminonaphthalene assay; format: functional, cell-based; settings: BV-2, 24 h
[7] = target: T1, Toll-like receptor 4; assay: Inhibition of human TLR4 expressed in HEK293-Blue hTLR4 cells assessed as SEAP expression; format: cell-based, HEK-Blue hTLR4
[8] = Inhibition of HMGB1-induced TLR4 protein expression in mouse primary microglia preincubated for 12 hrs followed by HMGB1 stimulation for 30 mins by Western blot analysis; format: functional; settings: time 12.5 hrs
[9] = system: Liver; assay: Inhibition of CIS-induced TLR4 mRNA expression in rat hepatic tissue by SYBR-green dye based RT-PCR analysis; format: functional
[10] = system: Liver; assay: Inhibition of CIS-induced NF-kappaBp53 mRNA expression in rat hepatic tissue by SYBR-green dye based RT-PCR analysis; format: functional
[11] = system: Liver; assay: Inhibition of CIS-induced TLR4 protein expression in rat hepatic tissue by Western blot analysis; format: functional
[12] = system: Liver; assay: Inhibition of CIS-induced MyD88 mRNA expression in rat hepatic tissue by SYBR-green dye based RT-PCR analysis; format: functional
[13] = system: RAW264.7; assay: Antiinflammatory activity in mouse RAW264.7 cells assessed as decrease in LPS-induced TNF-alpha secretion preincubated for 1 hr followed by LPS stimulation and measured after 24 hrs by ELISA; format: functional, cell-based
[14] = system: RAW264.7; assay: Antiinflammatory activity in mouse RAW264.7 cells assessed as decrease in LPS-induced NO secretion preincubated for 1 hr followed by LPS stimulation and measured after 24 hrs by Griess reagent based assay; format: functional, cell-based
[15] = system: RAW264.7; assay: Antiinflammatory activity in mouse RAW264.7 cells assessed as decrease in LPS-induced IL-1beta secretion preincubated for 1 hr followed by LPS stimulation and measured after 24 hrs by ELISA; format: functional, cell-based
[16] = target: T1, Toll-like receptor 4; assay: Inhibition of LPS-stimulated TLR4 activation in HEK-Blue-hTLR4 cells assessed as reduction in SEAP release preincubated for 15 mins followed by LPS stimulation and measured after 16 hrs by microplate reader assay; format: cell-based
[17] = system: HEK293; assay: Cytotoxicity against HEK293 cells assessed as cell survival at 20 uM incubated for 16 to 24 hrs by MTT method; format: functional; settings: Homo sapiens, time 16-24 hrs, read-out: Activity
[18] = target: T1, Toll-like receptor 4; assay: Inhibition of TLR4 in HEK293 cells assessed as reduction in LPS-stimulated NF-kappaB activation at 20 uM incubated for 16 to 24 hrs by SEAP reporter gene assay relative to control; format: cell-based; settings: time 16-24 hrs
[19] = Inhibition of TLR4 expression in human monocytes; format: functional, cell-based; settings: Monocyte

T1 sequence (O00206 whole entry): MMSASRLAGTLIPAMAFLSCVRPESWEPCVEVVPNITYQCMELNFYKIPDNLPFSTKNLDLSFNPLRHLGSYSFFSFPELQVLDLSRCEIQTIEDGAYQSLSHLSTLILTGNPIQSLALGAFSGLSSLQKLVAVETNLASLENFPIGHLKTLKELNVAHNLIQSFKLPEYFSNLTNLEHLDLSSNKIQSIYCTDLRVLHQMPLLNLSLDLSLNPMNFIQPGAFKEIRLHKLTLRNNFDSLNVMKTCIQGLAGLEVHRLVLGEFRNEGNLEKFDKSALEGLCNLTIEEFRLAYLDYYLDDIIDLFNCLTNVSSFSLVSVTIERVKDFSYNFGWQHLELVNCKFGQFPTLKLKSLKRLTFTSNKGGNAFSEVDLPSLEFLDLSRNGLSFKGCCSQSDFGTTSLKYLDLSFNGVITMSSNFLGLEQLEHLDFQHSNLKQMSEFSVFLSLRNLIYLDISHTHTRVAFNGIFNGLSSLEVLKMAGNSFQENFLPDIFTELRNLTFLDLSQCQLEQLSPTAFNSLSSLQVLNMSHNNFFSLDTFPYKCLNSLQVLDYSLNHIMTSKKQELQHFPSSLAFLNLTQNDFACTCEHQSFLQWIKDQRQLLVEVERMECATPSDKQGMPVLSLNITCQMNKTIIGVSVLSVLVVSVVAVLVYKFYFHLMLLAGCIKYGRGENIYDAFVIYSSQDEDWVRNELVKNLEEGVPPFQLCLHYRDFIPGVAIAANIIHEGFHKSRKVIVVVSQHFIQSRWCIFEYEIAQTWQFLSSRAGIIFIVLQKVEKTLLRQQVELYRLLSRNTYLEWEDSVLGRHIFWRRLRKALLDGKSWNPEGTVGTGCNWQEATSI

O=C(/C=C/c1ccc(O)c(O)c1)OCCc1ccccc1
MIC [1]: 1 µM (≈ 0.284 µg/mL)

C=CC(=O)N(c1ccc(F)cc1Cl)S(=O)(=O)c1ccccc1C(=O)OC
inhibition [2]: 100% | viability at 10 µM [3]: 88.5%

CC(=O)N[C@H]1[C@H](OC2CCCCC2)O[C@H](CO)[C@@H](O[C@@H]2O[C@H](CO)[C@@H](O[C@@H]3O[C@H](CO)[C@@H](O[C@@H]4O[C@H](CO)[C@@H](O[C@@H]5O[C@H](CO)[C@@H](O[C@@H]6O[C@H](CO)[C@@H](O)[C@H](O)[C@H]6NC(C)=O)[C@H](O)[C@H]5NC(C)=O)[C@H](O)[C@H]4NC(C)=O)[C@H](O)[C@H]3NC(C)=O)[C@H](O)[C@H]2NC(C)=O)[C@@H]1O
IC50 [4]: 0.15 µM

CCOC(=O)C1=C[C@@H](O)CC[C@H]1S(=O)(=O)Cc1ccc(F)cc1Cl
inhibition at 0.01 µM [5]: 98%

O=C1CC[C@@]2(O)[C@H]3Cc4ccc(O)c5c4[C@@]2(CCN3CC2CC2)[C@H]1O5 [NALTREXONE]
IC50 [6]: 106 µM

COc1ccc(C(=O)c2cnc(/N=C(\N)Nc3ccc(F)cc3)nc2)c(O)c1
IC50 [7]: 18 µM

COc1ccc(N/C(N)=N/c2ncc(C(=O)c3ccccc3O)cn2)cc1
IC50 [7]: 27 µM

COc1ccc(C[C@H]2COC(=O)[C@@H]2Cc2ccc(O[C@@H]3O[C@H](CO)[C@@H](O)[C@H](O)[C@H]3O)c(OC)c2)cc1OC [ARCTIIN]
MIC [8]: ≤ 50 µM

CC(/C=C/C=C(\C)C(=O)O[C@@H]1O[C@H](CO[C@@H]2O[C@H](CO)[C@@H](O)[C@H](O)[C@H]2O)[C@@H](O)[C@H](O)[C@H]1O)=C\C=C\C=C(C)\C=C\C=C(/C)C(=O)O[C@@H]1O[C@H](CO[C@@H]2O[C@H](CO)[C@@H](O)[C@H](O)[C@H]2O)[C@@H](O)[C@H](O)[C@H]1O [CROCIN]
inhibition (INH) [9]: 57.7% | inhibition (INH) [10]: 66.2% | inhibition (INH) [11]: 53.1% | inhibition (INH) [12]: 53.2%

O=S(=O)(Nc1ccc(C(F)(F)F)cc1)c1cccc2cccnc12
IC50 [13]: 9.74 µM | IC50 [14]: 2.61 µM | IC50 [15]: 12.7 µM

CCCCCCCCCCCCCC(=O)N[C@H]1[C@H](OC(=O)CCC(=O)O)O[C@H](CO)[C@@H](OC(=O)CCC(=O)O)[C@@H]1OC(=O)CCCCCCCCCCCCC
IC50 [16]: 5.91 µM

CCCCC/C=C\C/C=C\CCCCCCC(=O)N[C@H]1[C@H](OC(=O)CCC(=O)O)O[C@H](CO)[C@@H](OC(=O)CCC(=O)O)[C@@H]1OC(=O)CCCCCC/C=C\C/C=C\CCCCC
IC50 [16]: 4.35 µM

CCCCCCCCC/C=C\CCCCCCC(=O)N[C@H]1[C@H](OC(=O)CCC(=O)O)O[C@H](CO)[C@@H](OC(=O)CCC(=O)O)[C@@H]1OC(=O)CCCCCCCCCCCCC
IC50 [16]: 2.7 µM

N/C(=N\c1ncc(C(=O)c2cc(Cl)ccc2O)cn1)Nc1ccc(F)cc1
IC50 [7]: 40 µM

C=CC(=O)N(c1ccc(F)cc1Cl)S(=O)(=O)N1CCCCC1C(=O)OC (stereo not drawn)
inhibition [2]: 100% | viability at 10 µM [3]: 92.2%

CCCCC/C=C\C/C=C\CCCCCCC(=O)N[C@H]1[C@H](OC(=O)CCC(=O)O)O[C@H](CO)[C@@H](OC(=O)CCC(=O)O)[C@@H]1OC(=O)CCCCCCCCCCCCC
IC50 [16]: 6.61 µM

CCCCCCCC/C=C\CCCCCCC(=O)N[C@H]1[C@H](OC(=O)CCC(=O)O)O[C@H](CO)[C@@H](OC(=O)CCC(=O)O)[C@@H]1OC(=O)CCCCCC/C=C\CCCCCCCC
IC50 [16]: 3.5 µM

CC(C)Nc1ccc(N2CC[C@]34CCCC[C@H]3[C@H]2Cc2ccc(O)cc24)cc1
viability at 20 µM [17]: 89.9% | inhibition [18]: 99.8%

COc1ccc(C(C)=O)c(Oc2ccc(NC(=O)/C=C/c3cc(OC)c(OC)c(OC)c3)cc2)c1
IC50 [14]: 6.96 µM

CC(=O)N[C@H]1[C@H](Oc2ccc([N+](=O)[O-])cc2)O[C@H](CO)[C@@H](O)[C@@H]1O
IC50 [19]: 0.042 µM

Reference: ChEMBL document CHEMBL5126542, “Toll-like receptor 4 (TLR4) inhibitors: Current research and prospective” (Eur J Med Chem, 2022)
